# From patent publication US20250011881A1, “MYC-HSF1 DUAL AMPLIFICATION AS A BIOMARKER FOR CANCER TREATMENT” (The Trustees of Indiana University, priority 2023, published 2025)
# Values joined by “and” are separate entries in the source; they are usually repeats but may differ in a detail not shown here. Equal values may be shown once. Where a name gives a salt, the structure may show the parent alone.
# System: ovarian cancer cells with (OVCAR8, OVCAR4) or without (OVSAHO, CAOV3) MYC-HSF1 amplification
# Experiment: Epigenetic inhibitor drug screen, cell viability (Cell Titer Blue)
# Format: cell-based
# Conditions: not given
row,SMILES,Non Amp - AMP (POC) 10 uM [POC]
1,O=C(Nc1ccc(CN2CCOCC2)cc1)c1ccc(-c2cccc(Cl)c2)o1 [CID 2011756],21.79
2,O=C(CCCCCCC(=O)NO)NO [SBHA],0.3146
3,CCN1CCN(C(=O)Cc2ccc(Nc3ncc(F)c(Nc4ccc(C(=O)Nc5ccccc5Cl)cc4)n3)cc2)CC1 [Aurora A Inhibitor I],8.339

# Same assay, conditions: 10 uM, 48 hrs; average relative cell viability (vs 1% DMSO) of non-amplified cells (OVSAHO, CAOV3) minus that of MYC-HSF1 amplified cells (OVCAR8, OVCAR4); positive = greater response in amplified cells
row,SMILES,Non Amp - AMP (POC) 10 uM [POC]
1,Cl.O=S(=O)(c1cccc2cnccc12)N1CCNCC1 [HA-100 (hydrochloride)],12.45
2,"O=C(/C=C/c1cccc(S(=O)(=O)Nc2ccccc2)c1)NO [Belinostat (PXD101), Belinostat]",12.55
3,"Cn1ncnc1C1c2n[nH]c(=O)c3cc(F)cc(c23)NC1c1ccc(F)cc1 (stereo not shown) [BMN-673 8R, 9S]",−2.489
4,CN1CCc2c(c3ccccc3n2Cc2ccc(C(=O)NO)cc2)C1 [Tubastatin A],15.75
5,O=C1Nc2cc(Br)ccc2/C1=C1/Nc2ccccc2/C1=N\O [GSK-3 Inhibitor IX (BIO)],−1.008
6,C[C@@H]1O[C@@H](O[C@H]2[C@H](O[C@H]3[C@H](O[C@H]4CC[C@]5(C)[C@H]6CC=C7[C@@H]8CC(C)(C)CC[C@]8(C(=O)O)CC[C@@]7(C)[C@]6(C)CC[C@H]5C4(C)C)OC[C@H](O)[C@@H]3O)O[C@H](CO)[C@@H](O)[C@@H]2O)[C@H](O)[C@H](O)[C@H]1O [Raddeanin A],2.609
7,Cl.O=C(Nc1ccccc1-c1cn2c(CN3CCNCC3)csc2n1)c1cnc2ccccc2n1 [SRT1720 HCl],4.809
8,Cc1cnc(Nc2ccc(N3CCN(C)CC3)cc2)nc1Nc1cccc(S(=O)(=O)NC(C)(C)C)c1 [TG101209],15.1
9,O=C(CCCCCCC(=O)Nc1ccc(I)cc1)NO [4-iodo-SAHA],29.5
10,CCCCCCCCCCCCCC(=S)NCCCC[C@H](NC(=O)OCc1ccccc1)C(=O)Nc1ccccc1 [Thiomyristoyl],−0.8381
11,"CN(C)Cc1ccc(S(=O)(=O)n2ccc(/C=C/C(=O)NO)c2)cc1 [Resminostat (hydrochloride), Resminostat]",36.33
12,Cc1nc(N)sc1-c1ccnc(Nc2ccc(N3CCOCC3)cc2)n1 [CYC116],8.383
13,O=C(c1ccc(/C=C/c2n[nH]c3ccccc23)cc1)N1CCNCC1 [KW 2449],6.231

# Same assay, conditions: 10 uM, 48 hrs; average relative cell viability (vs 1% DMSO) of non-amplified cells (OVSAHO, CAOV3) minus that of MYC-HSF1 amplified cells (OVCAR8, OVCAR4); positive = greater response in amplified cells; 10 µM
row,SMILES,Non Amp - AMP (POC) 10 uM
1,COc1cc2c(cc1-c1c(C)noc1C)ncc1[nH]c(=O)n([C@H](C)c3ccccn3)c12 [I-BET151],21.72 POC
2,CCC(CC)(NC(=O)C(C)C)C(=O)N[C@@H](CCCN=C(N)N)C(=O)NC1(C(=O)NC(c2ccc(F)cc2)c2ccc(F)cc2)CCCC1 [MM-102],10.41 POC and 6.837 POC
3,CCN(c1cc(-c2ccc(CN3CCOCC3)cc2)cc(C(=O)NCc2c(C)cc(C)[nH]c2=O)c1C)C1CCOCC1 [EPZ6438],8.683 POC
4,"O=C(CCCCCCC(=O)Nc1ccccc1)NO [Vorinostat (SAHA, MK0683), Vorinostat]",37.32 POC
5,"CCOC(=O)NCCCC(=O)NCCc1ccccc1 [CAY10683, Santacruzamate A]",18.98 POC
6,CC(C)Oc1ccc(-c2c[nH]cc2CN(C)CCN)cc1 [MS023],−0.6323 POC
7,"O=C(/C=C/c1ccc(CN(CCO)CCc2c[nH]c3ccccc23)cc1)NO [LAQ824, Dacinostat]",43.86 POC
8,"O=C(O)c1ccnc(C(=O)O)c1 [2,4-Pyridinedicarboxylic Acid (hydrate), 2,4-Pyridinedicarboxylic Acid]",10.85 POC
9,Cn1cc(CNCC2CCN(c3ncc(C(=O)NO)cn3)CC2)c2ccccc21 [JNJ-26481585],38.34 POC and 26.25 POC

# Same assay, conditions: 10 uM, 48 hrs; average relative cell viability (vs 1% DMSO) of non-amplified cells (OVSAHO, CAOV3) minus that of MYC-HSF1 amplified cells (OVCAR8, OVCAR4); positive = greater response in amplified cells; HCl, 10 µM
row,SMILES,Non Amp - AMP (POC) 10 uM [POC]
1,Nc1ccn([C@@H]2O[C@H](CO)[C@@H](O)C2(F)F)c(=O)n1 [Gemcitabine HCl],8.319

# Same assay, conditions: 10 uM, 48 hrs; average relative cell viability (vs 1% DMSO) of non-amplified cells (OVSAHO, CAOV3) minus that of MYC-HSF1 amplified cells (OVCAR8, OVCAR4); positive = greater response in amplified cells; listed as EPZ-6438, 10 µM
row,SMILES,Non Amp - AMP (POC) 10 uM [POC]
1,CCN(c1cc(-c2ccc(CN3CCOCC3)cc2)cc(C(=O)NCc2c(C)cc(C)[nH]c2=O)c1C)C1CCOCC1 [EPZ6438],3.862

# Same assay, conditions: 10 uM, 48 hrs; average relative cell viability (vs 1% DMSO) of non-amplified cells (OVSAHO, CAOV3) minus that of MYC-HSF1 amplified cells (OVCAR8, OVCAR4); positive = greater response in amplified cells; listed as I-BET151 (GSK1210151A), 10 µM
row,SMILES,Non Amp - AMP (POC) 10 uM [POC]
1,COc1cc2c(cc1-c1c(C)noc1C)ncc1[nH]c(=O)n([C@H](C)c3ccccn3)c12 [I-BET151],3.072

# Same assay, conditions: 10 uM, 48 hrs; average relative cell viability (vs 1% DMSO) of non-amplified cells (OVSAHO, CAOV3) minus that of MYC-HSF1 amplified cells (OVCAR8, OVCAR4); positive = greater response in amplified cells; listed as LAQ824 (NVP-LAQ824, Dacinostat), 10 µM
row,SMILES,Non Amp - AMP (POC) 10 uM [POC]
1,"O=C(/C=C/c1ccc(CN(CCO)CCc2c[nH]c3ccccc23)cc1)NO [LAQ824, Dacinostat]",28.82

# Same assay, conditions: 10 uM, 48 hrs; average relative cell viability (vs 1% DMSO) of non-amplified cells (OVSAHO, CAOV3) minus that of MYC-HSF1 amplified cells (OVCAR8, OVCAR4); positive = greater response in amplified cells; listed as SAHA, 10 µM
row,SMILES,Non Amp - AMP (POC) 10 uM [POC]
1,"O=C(CCCCCCC(=O)Nc1ccccc1)NO [Vorinostat (SAHA, MK0683), Vorinostat]",44.79

# Same assay, conditions: 10 uM, 48 hrs; average relative cell viability (vs 1% DMSO) of non-amplified cells (OVSAHO, CAOV3) minus that of MYC-HSF1 amplified cells (OVCAR8, OVCAR4); positive = greater response in amplified cells; listed as Santacruzamate A (CAY10683), 10 µM
row,SMILES,Non Amp - AMP (POC) 10 uM [POC]
1,"CCOC(=O)NCCCC(=O)NCCc1ccccc1 [CAY10683, Santacruzamate A]",−0.9653
